Source: US8299073B2, “P38 MAP kinase inhibitors” (Respivert Ltd., priority 2008, dated 2012)
Read-outs that look alike come from different tables or passages of the source. Values belong to the compound of their own block, whether it stands above or below them.

Key:
[1] = target: T1, recombinant, phosphorylated p38 MAPK gamma (MAPK12:Millipore) (Homo sapiens, UniProt P53778); test: Enzyme inhibition assay (FRET, Z-LYTE), p38 MAPK gamma; format: biochemical; details: read-out: IC50 values P38γ enzyme
T1 construct: purchased Millipore
T1 sequence (P53778 1-367): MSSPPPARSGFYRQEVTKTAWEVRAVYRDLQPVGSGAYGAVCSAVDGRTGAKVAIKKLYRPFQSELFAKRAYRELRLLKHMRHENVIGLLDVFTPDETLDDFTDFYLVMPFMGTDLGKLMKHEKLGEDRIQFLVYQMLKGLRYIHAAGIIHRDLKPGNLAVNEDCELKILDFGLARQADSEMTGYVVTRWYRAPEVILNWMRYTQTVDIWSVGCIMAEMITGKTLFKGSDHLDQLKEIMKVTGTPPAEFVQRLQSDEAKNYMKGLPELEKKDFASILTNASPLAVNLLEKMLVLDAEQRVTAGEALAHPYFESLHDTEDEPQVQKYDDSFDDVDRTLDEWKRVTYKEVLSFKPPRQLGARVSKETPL

[2] = test system: LPS-induced TNFα release in THP-1 cells; test: LPS-induced TNF alpha release in THP-1 cells; format: cell-based; details: Homo sapiens
[3] = test system: Differentiated U937 cells; test: MTT assay (loss of cell viability); format: cell-based, human; details: loss of cell viability, 10 ug/ml
[4] = test system: LPS-induced TNFα release in differentiated U937 cells; test: LPS-induced TNF alpha release in differentiated U937 cells; format: cell-based
[5] = target: T2, p38 MAPK alpha (MAPK14: Invitrogen) (Homo sapiens, UniProt Q16539); test: Enzyme inhibition assay (FRET, Z-LYTE), p38 MAPK alpha, via activation of MAPKAP-K2; format: biochemical; details: read-out: IC50 values p38α enzyme
T2 construct: purchased Invitrogen
T2 sequence (Q16539 whole entry): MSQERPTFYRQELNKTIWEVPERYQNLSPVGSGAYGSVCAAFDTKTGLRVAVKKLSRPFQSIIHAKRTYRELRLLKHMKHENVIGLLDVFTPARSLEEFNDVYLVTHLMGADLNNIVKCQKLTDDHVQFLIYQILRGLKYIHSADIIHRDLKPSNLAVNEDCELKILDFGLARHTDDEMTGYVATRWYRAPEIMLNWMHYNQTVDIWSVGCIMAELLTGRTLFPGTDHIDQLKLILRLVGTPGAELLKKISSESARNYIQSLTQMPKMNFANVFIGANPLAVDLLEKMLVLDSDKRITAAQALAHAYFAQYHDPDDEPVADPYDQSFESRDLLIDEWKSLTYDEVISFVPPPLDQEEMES

[6] = THP-1, LPS-induced TNFα release, read-out: IC50 values THP-1 cells
[7] = Homo sapiens; read-out: R-EC50 values d-U937 cells

Structure (SMILES): CO[C@H](C)C(=O)Nc1cc(COc2ccc(NC(=O)Nc3cc(C(C)(C)C)nn3-c3ccc(C)cc3)c3ccccc23)ccn1 [Example 5, (R)-N-(4-((4-(3-(3-tert-Butyl-1-p-tolyl-1H-pyrazol-5-yl)ureido)naphthalen-1-yloxy)methyl)pyridin-2-yl)-2-methoxypropanamide]
- IC50 [1]: < 5000 nM
- IC50 [2, 6]: < 10 nM
- MTT 4 hr [3]: − (− <30%)
- MTT 24 hr [3]: + (+ >30% at 10 ug/ml)
- EC50 [4, 7]: < 10 nM
- IC50 [5]: < 10 nM

Structure (SMILES): Cc1ccc(-n2nc(C(C)(C)C)cc2NC(=O)Nc2ccc(OCc3ccnc(NC(=O)CN4CCCC4)c3)c3ccccc23)cc1 [Example 22, N-(4-((4-(3-(3-tert-Butyl-1-p-tolyl-1H-pyrazol-5-yl)ureido)naphthalen-1-yloxy)methyl)pyridin-2-yl)-2-(pyrrolidin-1-yl)acetamide]
- IC50 [1]: < 500 nM
- IC50 [2, 6]: < 10 nM
- MTT 4 hr [3]: − (− <30%)
- MTT 24 hr [3]: − (− <30%)
- EC50 [4, 7]: < 10 nM
- IC50 [5]: < 10 nM

Structure (SMILES): COCCN(CCOC)CC(=O)Nc1cc(COc2ccc(NC(=O)Nc3cc(C(C)(C)C)nn3-c3ccc(C)cc3)c3ccccc23)ccn1 [Example 33, 2-(Bis(2-methoxyethyl)amino)-N-(4-((4-(3-(3-tert-butyl-1-p-tolyl-1H-pyrazol-5-yl)ureido)naphthalen-1-yloxy)methyl)pyridin-2-yl)acetamide]
- IC50 [1]: < 5000 nM
- IC50 [2, 6]: < 10 nM
- MTT 4 hr [3]: − (− <30%)
- MTT 24 hr [3]: − (− <30%)
- EC50 [4, 7]: < 10 nM
- IC50 [5]: < 10 nM

Structure (SMILES): COCC(=O)Nc1cc(C(C)(C)COc2ccc(NC(=O)Nc3cc(C(C)(C)C)nn3-c3ccc(C)cc3)c3ccccc23)ccn1 [Example 48, N-(4-(1-(4-(3-(3-tert-Butyl-1-p-tolyl-1-pyrazol-5-yl)ureido)naphthalen-1-yloxy)-2-methylpropan-2-yl)pyridin-2-yl)-2-methoxyacetamide]
- IC50 [1]: > 5000 nM
- IC50 [2, 6]: < 500 nM
- MTT 4 hr [3]: − (− <30%)
- MTT 24 hr [3]: − (− <30%)
- EC50 [4, 7]: < 500 nM
- IC50 [5]: < 500 nM

Structure (SMILES): Cc1ccc(-n2nc(C(C)(C)C)cc2NC(=O)Nc2ccc(OCc3ccnc(NC(=O)C4CCOCC4)c3)c3ccccc23)cc1 [Example 3, N-(4-((4-(3-(3-tert-Butyl-1-p-tolyl-1H-pyrazol-5-yl)ureido)naphthalen-1-yloxy)methyl)pyridin-2-yl)tetrahydro-2H-pyran-4-carboxamide]
- IC50 [1]: < 500 nM
- IC50 [2, 6]: < 10 nM
- MTT 4 hr [3]: − (− <30%)
- MTT 24 hr [3]: + (+ >30% at 10 ug/ml)
- EC50 [4, 7]: < 10 nM
- IC50 [5]: < 10 nM

Structure (SMILES): Cc1ccc(-n2nc(C(C)(C)C)cc2NC(=O)Nc2ccc(OCc3ccnc(NC(=O)CN4CCN(C)CC4)c3)c3ccccc23)cc1 [Example 23, N-(4-((4-(3-(3-tert-Butyl-1-p-tolyl-1H-pyrazol-5-yl)ureido)naphthalen-1-yloxy)methyl)pyridin-2-yl)-2-(4-methylpiperazin-1-yl)acetamide]
- IC50 [1]: < 500 nM
- IC50 [2, 6]: < 10 nM
- MTT 4 hr [3]: + (+ >30% at 10 ug/ml)
- MTT 24 hr [3]: + (+ >30% at 10 ug/ml)
- EC50 [4, 7]: < 10 nM
- IC50 [5]: < 10 nM

Structure (SMILES): Cc1ccc(-n2nc(C(C)(C)C)cc2NC(=O)Nc2ccc(OCc3ccnc(NC(=O)N4CCN(C)CC4)c3)c3ccccc23)cc1 [Example 12, N-(4-((4-(3-(3-tert-Butyl-1-p-tolyl-1H-pyrazol-5-yl)ureido)naphthalen-1-yloxy)methyl)pyridin-2-yl)-4-methylpiperazine-1-carboxamide]
- IC50 [1]: < 500 nM
- IC50 ([2]; THP-1, read-out: IC50 values THP-1 cells): < 10 nM
- MTT 4 hr [3]: − (− <30%)
- MTT 24 hr [3]: − (− <30%)
- EC50 ([4]; Homo sapiens, read-out: R-EC50 values d-U937 cells): < 10 nM
- IC50 [5]: < 10 nM

Structure (SMILES): COCC(=O)Nc1cc(OCCc2ccc(NC(=O)Nc3cc(C(C)(C)C)nn3-c3ccc(C)cc3)c3ccccc23)ccn1 [Example 43, N-(4-(2-(4-(3-(3-tert-butyl-1-p-tolyl-1H-pyrazol-5-yl)ureido)naphthalen-1-yl)ethoxy)pyridin-2-yl)-2-methoxyacetamide]
- IC50 [1]: < 5000 nM
- IC50 [2, 6]: < 500 nM
- MTT 4 hr [3]: − (− <30%)
- MTT 24 hr [3]: − (− <30%)
- EC50 [4, 7]: < 500 nM
- IC50 [5]: < 500 nM

Structure (SMILES): COCC(=O)Nc1cc(CC(C)Oc2ccc(NC(=O)Nc3cc(C(C)(C)C)nn3-c3ccc(C)cc3)c3ccccc23)ccn1 (stereo not drawn) [Example 46, N-(4-(2-(4-(3-(3-tert-Butyl-1-p-tolyl-1H-pyrazol-5-yl)ureido)naphthalen-1-yloxy)propyl)pyridin-2-yl)-2-methoxyacetamide]
- IC50 [1]: > 5000 nM
- IC50 [2, 6]: < 500 nM
- MTT 4 hr [3]: − (− <30%)
- MTT 24 hr [3]: − (− <30%)
- EC50 [4, 7]: < 500 nM
- IC50 [5]: < 500 nM

Now from value to compound, other results behind:

- IC50 [1]: < 500 nM
- IC50 [2, 6]: < 10 nM
- EC50 [4, 7]: < 10 nM
- IC50 [5]: < 500 nM
Structure (SMILES): CNCC(=O)Nc1cc(COc2ccc(NC(=O)Nc3cc(C(C)(C)C)nn3-c3ccc(C)cc3)c3ccccc23)ccn1 [Example 27, N-(4-((4-(3-(3-tert-Butyl-1-p-tolyl-1H-pyrazol-5-yl)ureido)naphthalen-1-yloxy)methyl)pyridin-2-yl)-2-(methylamino)acetamide]
- MTT 4 hr [3]: − (− <30%)
- MTT 24 hr [3]: − (− <30%)

- IC50 [1]: < 500 nM
- IC50 [2, 6]: < 10 nM
- EC50 [4, 7]: < 10 nM
- IC50 [5]: < 10 nM
Structure (SMILES): COCCC(=O)Nc1cc(COc2ccc(NC(=O)Nc3cc(C(C)(C)C)nn3-c3ccc(C)cc3)c3ccccc23)ccn1 [Example 14, N-(4-((4-(3-(3-tert-Butyl-1-p-tolyl-1H-pyrazol-5-yl)ureido)naphthalen-1-yloxy)methyl)pyridin-2-yl)-3-methoxypropanamide]
- MTT 4 hr [3]: − (− <30%)
- MTT 24 hr [3]: − (− <30%)

- IC50 [1]: < 500 nM
- IC50 [2, 6]: < 10 nM
- EC50 [4, 7]: < 10 nM
- IC50 [5]: < 500 nM
Structure (SMILES): Cc1ccc(-n2nc(C(C)(C)C)cc2NC(=O)Nc2ccc(OCc3ccnc(NC(=O)CCCN(C)C)c3)c3ccccc23)cc1 [Example 16, N-(4-((4-(3-(3-tert-Butyl-1-p-tolyl-1H-pyrazol-5-yl)ureido)naphthalen-1-yloxy)methyl)pyridin-2-yl)-4-(dimethylamino)butanamide]
- MTT 4 hr [3]: + (+ >30% at 10 ug/ml)
- MTT 24 hr [3]: + (+ >30% at 10 ug/ml)

- IC50 [1]: < 500 nM
- IC50 [2, 6]: < 500 nM
- EC50 [4, 7]: < 10 nM
- IC50 [5]: < 10 nM
Structure (SMILES): COCC(=O)Nc1cc(COc2ccc(NC(=O)Nc3cc(C(C)(C)C)nn3-c3ccc(CO)cc3)c3ccccc23)ccn1 [Example 49, N-(4-((4-(3-(3-tert-Butyl-1-(4-(hydroxymethyl)phenyl)-1H-pyrazol-5-yl)ureido)naphthalen-1-yloxy)methyl)pyridin-2-yl)-2-methoxyacetamide]
- MTT 4 hr [3]: − (− <30%)
- MTT 24 hr [3]: + (+ >30% at 10 ug/ml)

- IC50 [1]: < 500 nM
- IC50 [2, 6]: < 10 nM
- EC50 [4, 7]: < 10 nM
- IC50 [5]: < 10 nM
Structure (SMILES): COCCN1CCN(CC(=O)Nc2cc(COc3ccc(NC(=O)Nc4cc(C(C)(C)C)nn4-c4ccc(C)cc4)c4ccccc34)ccn2)CC1 [Example 24, N-(4-((4-(3-(3-tert-Butyl-1-p-tolyl-1H-pyrazol-5-yl)ureido)naphthalen-1-yloxy)methyl)pyridin-2-yl)-2-(4-(2-methoxyethyl)piperazin-1-yl)acetamide]
- MTT 4 hr [3]: − (− <30%)
- MTT 24 hr [3]: − (− <30%)

- IC50 [1]: < 500 nM
- IC50 [2, 6]: < 10 nM
- EC50 [4, 7]: < 10 nM
- IC50 [5]: < 10 nM
Structure (SMILES): Cc1ccc(-n2nc(C(C)(C)C)cc2NC(=O)Nc2ccc(OCc3ccnc(NC(=O)CO)c3)c3ccccc23)cc1 [Example 7, N-(4-((4-(3-(3-tert-Butyl-1-p-tolyl-1H-pyrazol-5-yl)ureido)naphthalen-1-yloxy)methyl)pyridin-2-yl)-2-hydroxyacetamide]
- MTT 4 hr [3]: − (− <30%)
- MTT 24 hr [3]: + (+ >30% at 10 ug/ml)

- IC50 [1]: < 500 nM
- IC50 [2, 6]: < 500 nM
- EC50 [4, 7]: < 10 nM
- IC50 [5]: < 10 nM
Structure (SMILES): Cc1ccc(-n2nc(C(C)(C)C)cc2NC(=O)Nc2ccc(OCc3ccnc(NC(=O)N4CCOCC4)c3)c3ccccc23)cc1 [Example 13, N-(4-((4-(3-(3-tert-Butyl-1-p-tolyl-1H-pyrazol-5-yl)ureido)naphthalen-1-yloxy)methyl)pyridin-2-yl)morpholine-4-carboxamide]
- MTT 4 hr [3]: − (− <30%)
- MTT 24 hr [3]: − (− <30%)

- IC50 [1]: < 500 nM
- IC50 [2, 6]: < 500 nM
- EC50 [4, 7]: < 10 nM
- IC50 [5]: < 10 nM
Structure (SMILES): Cc1ccc(-n2nc(C(C)(C)C)cc2NC(=O)Nc2ccc(OCc3ccnc(NC(=O)CS(=O)(=O)CCN4CCOCC4)c3)c3ccccc23)cc1 [Example 32, N-(4-((4-(3-(3-tert-Butyl-1-p-tolyl-1H-pyrazol-5-yl)ureido)naphthalen-1-yloxy)methyl)pyridin-2-yl)-2-(2-morpholinoethylsulfonyl)acetamide]
- MTT 4 hr [3]: − (− <30%)
- MTT 24 hr [3]: − (− <30%)
